For data set [1] the following is noted: log cumulative stability constant; cited from earlier work.
For data set [2] the following is noted: log cumulative stability constant; cited from earlier work. This is another data set of the same source.
For data set [3] the following is noted: log cumulative stability constant; cited from earlier work. This is another data set of the same source.
Data set [4] has as its system Vaccinia virus. The following applies: monkey kidney cells; cited from earlier work.
Data set [5] relates to CaSki cells. Description: MTS mitochondrial function assay, loss of cell viability, 72 hour cultures. It counts as cell-based, human. The following applies: for Pa Effect Alone: Pa 2.5 mM; for SY Effect Alone: SY 150 μM. As for the experimental part: (§1) In vitro cell culture experiments were performed to investigate the induction of apoptosis by combinations of Diindolylmethane (DIM), Silybin (SY), Picolinic Acid (PA), Sodium Butyrate (BA), and Gallium Nitrate (Ga) in relevant cervical cancer cells. The cell lines CaSki (containing multiple copies of integrated HPV16 DNA), C33A (HPV negative with mutant p53), were utilized. Cells were maintained and assays for apoptosis induction performed as previously described (Chen D Z, Qi M, Auborn K J and Carter T H, Indole-3-carbinol and diindolylmethane induce apoptosis of human cervical cancer cells and in murine HPV 16-transgenic preneoplastic cervical epithelium. J Nutr. 2001 December;131(12):3294-302). Novel combinations of DIM and various Iron/Zinc chelators were tested to assess and document greater than additive (synergistic) apoptosis-related activity in controlled 72 hour cultures.
(§2) The primary assay for apoptosis-related loss of cell viability was the mitochondrial function assay [reduction of 3-(4,5-dimethylthiazol-2-yl)-5-(3-carboxymethoxyphenyl)-2-(4-sulfophenyl)-2H-tetrazolium (MTS)] using a MTS kit (Promega, Madison, Wis.). A minimum of 4 replicate wells per condition were studied and absorbance at […] of the solution in individual wells was determined with a multi-well plate reader. Data were analyzed by plotting the mean and SD of cell viability versus concentration of DIM, Iron/Zinc chelator or other growth inhibitors.
(§3) Using doses for each agent at or below the ID50 levels, synergistic, apoptosis-related, reductions in cell viability were documented for both combinations of DIM and Iron disrupting compounds and for combinations of DIM and Zinc disrupting compounds. Results showing percent reductions of cell viability using the MTS assay for individual agents, combined effects, and extent of synergism are summarized in the following tables and FIGS. 1-3.
In general terms: Tetrazolium dyes change colour on reduction, which living cells bring about.

For data set [6] the following is noted: cited from earlier work.
Data set [7] concerns C33A cells. As to the kind of experiment: MTS mitochondrial function assay, loss of cell viability, 72 hour cultures. The format is cell-based, human. Here is the method:
as §1, §2, §3

Data set [8] has as its system papillomavirus altered cervical cancer cell lines. The following applies: cell culture; cited from earlier work.
Data set [9] concerns tumor tissue. Description: Ga-67 SPECT scan in patients with oropharyngeal squamous cell cancer. The format is in vivo, human. The following applies: 8 millicuries intravenous. An excerpt:
In order to reduce radiation-related side effects use of both conventional radiation and Cyberknife radiosurgery (Accuray, Sunnyvale, Calif.) were employed together with intravenous and oral DIM and intravenous Ga-67 isotope and Gallium nitrate. This combined approach allowed reduction of the total radiation dose from 7000 cGy to 3500 cGy. On the first treatment day the patient underwent Computerized Tomography (CT) with intravenous omnipaque to enhance 3 dimensional definition of the tumor mass. This was followed by a Ga-67 SPECT scan involving administration of 8 millicuries of Gallium-67 Citrate isotope (Cardinal Health, Denver, Colo.).
On the first treatment day the patient, weighing 50 kg, underwent Computerized Tomography (CT) with intravenous omnipaque to enhance the 3 dimensional definition of the recurrent tumor mass. This was followed by a Ga-67 SPECT scan involving administration of 8 millicuries of Gallium-67 isotope (Cardinal Health, Denver, Colo.).

Data set [10] deals with cervical dysplasia. Conditions: treated for 3 months; cited from earlier work.
For data set [11], the system named is virus infected skin cells (HIV-1, HSV-2). Conditions: cited from earlier work.

For the compound `c1ccc(-c2ccccn2)nc1` [BIP, 2,2′-bypryidyl], the “Logβ-Fe^III” value in [1] is on record as 16.3. Further, the “Logβ-Zn^II” value in [2] was 13.2. Besides, the “Logβ-Ga^II” value in data set [3] was 7.7. The “Concentrations shown to inhibit Vaccinia virus replication and ribonucleotide reductase” value in data set [4] was 60 to 80 µM.
Take `CCCC(=O)[O-].[Na+]` [BU, butyric acid sodium salt]: the “BU Effect Alone” value in [5] (BU 150 μM, Table IV) is on record as −15%.
Regarding `CC(=O)N(O)CCCCCNC(=O)CCC(=O)N(O)CCCCCNC(=O)CCC(=O)N(O)CCCCCN` [DFO, Desferrioxamine], the “Logβ-Fe^III” value in [1] was 30.5. The “Logβ-Zn^II” value in [2] was 11.1. Further, the “Logβ-Ga^II” value in data set [3] is listed as 27.6. Further, the “Lipid Solubility” value in data set [6] was “Low”.
Turning to `c1ccc2c(Cc3c[nH]c4ccccc34)c[nH]c2c1` [DIM, 3,3′-diindolylmethane], the “DIM Effect Alone” value is recorded as −8% in data set [7] (DIM 25 μM, reduction of cell viability); −26% in data set [5] (DIM 50 μM, Table II); −46% in [5] (DIM 75 μM, Table II); −19% in data set [5] (DIM 75 uM, Table III); −46% in data set [5] (DIM 75 μM, Table IV); −21% in [5] (DIM 100 uM, Table III). Also, the “DIM Alone 75 uM” value in data set [5] (DIM 75 uM, Table V) was −19%. In addition, the “Concentration required for activity (markers of apoptosis)” value in data set [8] was 50 µM.
Regarding `O=C(O)CN(CCN(CC(=O)O)CC(=O)O)CC(=O)O` [EDTA, ethylenediaminetetraacetic acid], in data set [1], the “Logβ-Fe^III” value was 25.1. Besides, the “Logβ-Zn^II” value in data set [2] is given as 16.5. In addition, the “Logβ-Ga^II” value in [3] is given as 21.0.
Consider `O=C([O-])CC(O)(CC(=O)[O-])C(=O)[O-].[67Ga+3]` [Gallium-67 Citrate], for which, in [9], the “Uptake of Gallium by the tumor tissue in the scan” value is “preferential uptake”.
For the compound `OCc1c[nH]c2ccccc12` [I3C, indole-3-carbinol], in data set [10], the “Women with partial improvement” value is on record as “about 50%”.
Consider `Cc1c(O)c(=O)ccn1C` [L1, 1,2-Dimethyl-3-hydroxypyrid-4-one], for which the “Logβ-Fe^III” value in data set [1] was 37.2. For the same compound, the “Logβ-Zn^II” value in data set [2] is reported as 13.5. For the same compound, the “Logβ-Ga^II” value in data set [3] is listed as 32.6. Also, the “Lipid Solubility” value in data set [6] is “Moderate”.
For `O=C(O)c1ccccn1` [Picolinic acid, pyridine-2-carboxylic acid], the “Pa Effect Alone” value in data set [5] (Table III line with DIM 75 uM) and in data set [5] (Table III line with DIM 100 uM) was −13% each time. Further, in [1], the “Logβ-Fe^III” value is listed as 12.8. For the same compound, the “Logβ-Zn^II” value in data set [2] is 12.9. In addition, the “Concentration required in cell culture when used alone” value in data set [11] (U.S. Pat. No. 6,410,570) is recorded as 3 mM. In addition, the “Concentration required for slowing of growth and diminished viability” value in data set [11] (virus infected skin cells) is reported as 3,000 micromolar. In data set [6], the “Lipid Solubility” value is recorded as “High”.
Turning to `COc1cc(C2Oc3cc([C@H]4Oc5cc(O)cc(O)c5C(=O)[C@@H]4O)ccc3OC2CO)ccc1O` (some centres unmarked) [Silybin, 3,5,7,-trihydroxy-2-[3-(4-hydroxy-3-methoxyphenil)-2-hydroxymethyl-1,4-benxodioxan-6-il]-chronan-4-one], the results for the “SY Effect Alone” value in data set [7] (SY 150 μM), in data set [5] (Table II line with DIM 50 μM) and in data set [5] (Table II line with DIM 75 μM) were −54%, −4% and −8%, respectively. Also, the “Sy Alone 150 uM” value in data set [5] (Sy 150 uM, Table V) is on record as −5%. In addition, the “Logβ-Fe^III” value in data set [1] is listed as 41.5.

The values above are taken from patent US20050063903A1, “Combined use of cruciferous indoles and chelators for the treatment of papilloma virus-related conditions” (priority 2003, published 2005).
